Measurements taken from ChEMBL document CHEMBL1201862, “PubChem BioAssay data set” (2004).
The source made the active and inactive calls.

How the values were obtained:
[1] = growth suppression of PTEN-null colon cells, dose response, cell-based, HCT116 PTEN knockout (AID 1047); format: functional;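 note: HCT116 colon tumor cells with PTEN knocked out; cells exposed to compound for 60 hours before readout; potency for loss of cell viability measured by luminescence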
[2] = growth suppression of beta-catenin-knockout colon cells, dose response, cell-based, HCT116, human colon tumor (AID 1045); format: functional;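 note: HCT116 colon tumor cells with beta catenin knocked out; cells exposed to compound for 60 hours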
[3] = Luminescence Cell-Based Dose Retest to Confirm Inhibitors of Cancer Stem Cells. [Related pubchem assays (depositor defined):AID2717, AID2721]; format: functional; conditions: Homo sapiens
X-box-binding protein 1 = target: T1, X-box-binding protein 1 (Homo sapiens, UniProt P17861); format: functional, Cricetulus griseus;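 note: confirmatory dose-response counter-screen serving a CHOP assay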
T1 sequence (P17861 whole entry): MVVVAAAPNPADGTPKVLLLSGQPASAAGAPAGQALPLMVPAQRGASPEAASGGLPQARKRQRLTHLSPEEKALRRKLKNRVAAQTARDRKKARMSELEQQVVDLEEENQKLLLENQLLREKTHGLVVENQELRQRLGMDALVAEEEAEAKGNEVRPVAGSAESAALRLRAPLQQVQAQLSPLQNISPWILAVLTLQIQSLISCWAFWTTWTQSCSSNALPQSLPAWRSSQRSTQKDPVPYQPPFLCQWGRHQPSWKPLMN

INS1 = experiment: beta cell apoptosis inhibitors, cytokine rescue, dose response, luminescence, retest (AID 449756); format: functional, cell-based; conditions: Rattus norvegicus;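 note: cell death triggered by IL-1 beta plus TNF-alpha plus IFN-gamma mixture; protective hits raise ATP signal compared with cytokine alone wells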
[4] = target: T2, DNA dC->dU-editing enzyme APOBEC-3G (Homo sapiens, UniProt Q9HC16); experiment: Dose Response confirmation of small molecule APOBEC3G DNA Deaminase Inhibitors via a fluorescence-based single-stranded DNA deaminase assay. [Related pubchem assays (depositor defined):AID493012, AID493028]; format: functional
HEK293 = experiment: Fluorescence-based counterscreen for potentiators or agonists of NPY-Y2: cell-based high-throughput dose response assay to identify inhibitors of cyclic nucleotide gated ion channel (CNGC) activity. In this assay, the parental HEK293 cell line transfected with a cyclic-nucleotide gated ion channel (CNGC)-based cAMP sensor is used to measure inhibition of isoproterenol-induced CNGC activity by test compound.; format: functional; conditions: Homo sapiens;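 note: stimulus is 1 µM isoproterenol at EC100 plus PDE inhibitor Ro 20-1724 at 25 µM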
[5] = system: Streptococcus sp. 'group A'; experiment: growth inhibition of control SK(-) GAS strain, dose response, counter-screen for streptokinase expression inhibitor project, luminescence, kanamycin, BacTiterGlo, confirmation (AID 1900); format: functional, organism-based
[6] = target: T3, Neuropeptide Y receptor type 2 (Homo sapiens, UniProt P49146); experiment: Fluorescence-based cell-based high-throughput dose response assay for agonists of NPY-Y2. [Related pubchem assays: 1703 (Screening assay (CNGC inhibitors).), 1359 (Screening assay (NPY-Y2 potentiators or agonists).), 1304 (Screening assay (NPY-Y1 potentiators or agonists).), 1710 (Screening assay (NPY-Y2 agonists).), 1791 (Summary AID.)]; format: functional
T3 sequence (P49146 whole entry): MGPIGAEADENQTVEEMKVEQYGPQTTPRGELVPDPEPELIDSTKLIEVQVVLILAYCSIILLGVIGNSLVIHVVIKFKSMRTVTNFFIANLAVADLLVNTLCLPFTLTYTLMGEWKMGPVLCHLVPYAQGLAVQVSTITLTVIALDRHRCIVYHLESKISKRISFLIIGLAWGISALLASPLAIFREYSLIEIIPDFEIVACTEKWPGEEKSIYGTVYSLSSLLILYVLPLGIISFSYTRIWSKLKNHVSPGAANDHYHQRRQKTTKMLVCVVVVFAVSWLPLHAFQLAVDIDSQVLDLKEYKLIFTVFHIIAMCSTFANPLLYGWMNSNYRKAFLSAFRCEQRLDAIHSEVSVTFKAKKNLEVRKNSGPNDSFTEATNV

Streptokinase A = target: T4, Streptokinase A (Streptococcus pyogenes serotype M1, UniProt P10520); experiment: S. pyogenes streptokinase expression inhibitors, potency, dose response, plasminogen activation absorbance, OD405 (AID 1914); format: functional, Streptococcus pyogenes M1 GAS;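 note: secreted streptokinase activity via plasminogen activation per viability signal from cell pellet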
T4 sequence (P10520 whole entry): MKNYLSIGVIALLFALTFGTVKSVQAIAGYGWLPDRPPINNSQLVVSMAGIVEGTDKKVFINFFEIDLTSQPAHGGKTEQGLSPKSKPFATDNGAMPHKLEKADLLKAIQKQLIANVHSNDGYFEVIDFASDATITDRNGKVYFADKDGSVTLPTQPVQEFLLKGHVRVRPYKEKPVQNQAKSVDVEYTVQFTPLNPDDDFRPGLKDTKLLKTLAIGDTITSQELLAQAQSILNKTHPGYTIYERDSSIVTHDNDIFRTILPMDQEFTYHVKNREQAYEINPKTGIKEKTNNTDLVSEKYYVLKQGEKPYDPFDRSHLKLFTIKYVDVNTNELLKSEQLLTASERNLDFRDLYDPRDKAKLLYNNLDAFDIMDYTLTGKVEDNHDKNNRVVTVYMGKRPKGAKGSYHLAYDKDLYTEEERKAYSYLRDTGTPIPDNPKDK

[7] = target: T5, Neuropeptide Y receptor type 1 (Homo sapiens, UniProt P25929); experiment: Fluorescence-based counterscreen for agonists of NPY-Y2: cell-based high-throughput dose response assay for agonists of NPY-Y1.; format: functional
T5 sequence (P25929 whole entry): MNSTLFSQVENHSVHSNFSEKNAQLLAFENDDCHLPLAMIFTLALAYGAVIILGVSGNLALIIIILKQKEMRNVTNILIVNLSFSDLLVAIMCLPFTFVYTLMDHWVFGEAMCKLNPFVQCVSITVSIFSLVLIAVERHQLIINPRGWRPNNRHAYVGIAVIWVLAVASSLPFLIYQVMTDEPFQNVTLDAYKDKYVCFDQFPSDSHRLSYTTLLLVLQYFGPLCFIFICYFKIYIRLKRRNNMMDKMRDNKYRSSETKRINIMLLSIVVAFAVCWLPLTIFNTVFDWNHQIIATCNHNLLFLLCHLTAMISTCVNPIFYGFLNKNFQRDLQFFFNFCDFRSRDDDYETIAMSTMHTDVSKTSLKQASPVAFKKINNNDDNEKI

Streptococcus = experiment: Group A Streptococcus viability loss, dose response, counter-screen for streptokinase expression inhibitor project, luminescence, BacTiterGlo (AID 1915); format: functional, organism-based;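 note: potency for reduction of bacterial viability or growth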
[8] = cytotoxicity in HEK-293T cells, dose response, cytotoxicity control for BCR NF-kB inhibitor project, luminescence, B-cell screen hits (AID 489021); format: functional, cell-based;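 note: HEK-293T cells carrying an NF-kB luciferase reporter; cells exposed to compound for about 14 hours before viability readout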
[9] = target: Eukaryotic translation initiation factor 4H (Homo sapiens, UniProt Q15056); experiment: human eIF4H binding inhibitors, primary screen, translation initiation inhibitor project, biochemical, uHTS, fluorescence polarization (AID 2012)
[10] = target: Polyadenylate-binding protein 1 (Homo sapiens, UniProt P11940); experiment: PABP poly(A) RNA binding inhibitors, primary screen, biochemical, fluorescence polarization, uHTS (AID 2014)
[11] = target: DNA dC->dU-editing enzyme APOBEC-3A (Homo sapiens, UniProt P31941); experiment: Dose Response confirmation of small molecule APOBEC3A DNA Deaminase Inhibitors via a fluorescence-based single-stranded DNA deaminase assay. [Related pubchem assays (depositor defined):AID493011, AID493024]; format: functional
[12] = target: T2, DNA dC->dU-editing enzyme APOBEC-3G; format: functional
[13] = target: T6, C-C chemokine receptor type 6 (Homo sapiens, UniProt P51684); experiment: CCR6 receptor antagonists, dose response, cell-based, luminescent beta-arrestin readout (AID 504728); format: functional
T6 sequence (P51684 whole entry): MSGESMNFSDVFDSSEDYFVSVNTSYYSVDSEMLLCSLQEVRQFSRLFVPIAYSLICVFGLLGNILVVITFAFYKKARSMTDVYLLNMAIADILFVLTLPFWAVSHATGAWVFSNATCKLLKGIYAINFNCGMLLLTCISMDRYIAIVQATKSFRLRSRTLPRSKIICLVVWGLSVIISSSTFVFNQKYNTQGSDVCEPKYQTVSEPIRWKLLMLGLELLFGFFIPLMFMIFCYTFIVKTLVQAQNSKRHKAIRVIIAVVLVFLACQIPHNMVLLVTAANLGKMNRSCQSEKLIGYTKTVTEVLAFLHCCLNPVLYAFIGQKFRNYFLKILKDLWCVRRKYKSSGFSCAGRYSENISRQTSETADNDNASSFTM

Beta-galactosidase = Beta-galactosidase (Escherichia coli, UniProt Q8VNN2); experiment: beta-galactosidase enzyme inhibitors and activators, dose response, artefact control for CCR6 antagonist project, biochemical, E. coli enzyme, set 3 (AID 504712); format: functional
Cytochrome P450 2C19 = Cytochrome P450 2C19 (Homo sapiens, UniProt P33261); experiment: Cytochrome panel assay with activity outcomes. Panel member name: p450-cyp2c19 Compounds with AC50 equal or less than 10 uM are considered active; format: functional
Cytochrome P450 2C9 = Cytochrome P450 2C9 (Homo sapiens, UniProt P11712)
Large T antigen = Large T antigen (Simian virus 40, UniProt P03070); format: functional, Betapolyomavirus macacae;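 note: Confirmatory-stage PubChem screen for compounds that inhibit SV40 T antigen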
Hexokinase HKDC1 = target: T7, Hexokinase HKDC1 (Homo sapiens, UniProt Q2TB90); experiment: HKDC1 hexokinase inhibitors, dose response, biochemical, W721R variant (AID 504729); format: functional
T7 sequence (Q2TB90 whole entry): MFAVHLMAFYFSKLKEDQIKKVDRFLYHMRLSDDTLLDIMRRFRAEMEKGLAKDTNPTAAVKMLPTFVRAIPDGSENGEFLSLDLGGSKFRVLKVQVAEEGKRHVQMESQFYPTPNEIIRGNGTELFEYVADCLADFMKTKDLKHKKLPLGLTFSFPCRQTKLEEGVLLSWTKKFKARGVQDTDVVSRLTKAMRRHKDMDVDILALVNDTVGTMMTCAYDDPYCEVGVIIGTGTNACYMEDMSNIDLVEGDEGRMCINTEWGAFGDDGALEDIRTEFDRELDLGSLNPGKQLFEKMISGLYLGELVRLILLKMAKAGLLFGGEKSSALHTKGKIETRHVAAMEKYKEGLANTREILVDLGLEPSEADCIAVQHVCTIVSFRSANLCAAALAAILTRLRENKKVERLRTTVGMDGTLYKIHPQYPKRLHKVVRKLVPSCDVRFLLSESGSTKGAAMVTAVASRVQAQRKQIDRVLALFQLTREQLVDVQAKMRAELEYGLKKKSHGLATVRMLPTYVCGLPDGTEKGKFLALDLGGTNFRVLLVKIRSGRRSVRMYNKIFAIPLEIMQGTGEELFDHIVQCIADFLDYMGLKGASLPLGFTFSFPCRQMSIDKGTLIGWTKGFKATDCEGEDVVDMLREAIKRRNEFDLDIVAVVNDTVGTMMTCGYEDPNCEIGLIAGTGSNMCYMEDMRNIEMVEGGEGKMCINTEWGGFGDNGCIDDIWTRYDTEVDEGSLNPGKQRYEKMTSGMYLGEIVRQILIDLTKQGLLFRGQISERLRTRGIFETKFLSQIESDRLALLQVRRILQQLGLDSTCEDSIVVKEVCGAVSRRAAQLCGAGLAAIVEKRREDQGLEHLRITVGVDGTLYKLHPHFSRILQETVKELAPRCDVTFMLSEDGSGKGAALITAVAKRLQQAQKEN

cells [14] = format: functional, cell-based
cells [15] = format: functional, cell-based; remark: listed apart in the source
Nonstructural protein 1 = Nonstructural protein 1 (Influenza A virus, UniProt Q194T2); format: functional, Influenza A virus (A/California/07/2009(H1N1))
[16] = target: Heat shock protein HSP 90-alpha (Homo sapiens, UniProt P07900); format: functional, organism-based
[17] = target: Disintegrin and metalloproteinase domain-containing protein 17 (Homo sapiens, UniProt P78536); experiment: ADAM17 protease inhibitors, dose response, counter-screen for ADAM10 exosite inhibitor project, biochemical, quenched FRET substrate (AID 743253)
Disintegrin and metalloproteinase domain-containing protein 17, sequence (P78536 whole entry, the tested form may be a part): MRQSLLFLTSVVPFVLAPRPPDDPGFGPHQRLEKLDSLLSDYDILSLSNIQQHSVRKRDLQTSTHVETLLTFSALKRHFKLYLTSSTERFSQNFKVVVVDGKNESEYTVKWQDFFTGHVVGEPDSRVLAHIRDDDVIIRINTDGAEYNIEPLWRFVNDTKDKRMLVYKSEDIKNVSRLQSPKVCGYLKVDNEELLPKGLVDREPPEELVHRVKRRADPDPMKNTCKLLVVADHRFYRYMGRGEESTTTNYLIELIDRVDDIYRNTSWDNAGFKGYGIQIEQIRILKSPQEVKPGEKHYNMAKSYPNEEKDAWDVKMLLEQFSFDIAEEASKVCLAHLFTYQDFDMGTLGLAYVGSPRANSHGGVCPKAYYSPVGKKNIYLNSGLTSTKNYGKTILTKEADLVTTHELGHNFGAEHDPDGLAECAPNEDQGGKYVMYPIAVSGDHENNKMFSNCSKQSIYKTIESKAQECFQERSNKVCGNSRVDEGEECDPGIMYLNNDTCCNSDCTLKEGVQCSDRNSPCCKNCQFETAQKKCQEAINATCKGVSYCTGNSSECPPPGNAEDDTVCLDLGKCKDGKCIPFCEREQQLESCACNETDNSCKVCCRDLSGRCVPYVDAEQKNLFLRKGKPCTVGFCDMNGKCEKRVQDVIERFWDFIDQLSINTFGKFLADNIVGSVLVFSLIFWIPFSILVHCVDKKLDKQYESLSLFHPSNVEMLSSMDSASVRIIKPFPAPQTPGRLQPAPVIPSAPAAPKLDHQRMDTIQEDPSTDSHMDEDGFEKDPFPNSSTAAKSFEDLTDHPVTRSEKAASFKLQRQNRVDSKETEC

Beta-galactosidase, sequence (Q8VNN2 whole entry): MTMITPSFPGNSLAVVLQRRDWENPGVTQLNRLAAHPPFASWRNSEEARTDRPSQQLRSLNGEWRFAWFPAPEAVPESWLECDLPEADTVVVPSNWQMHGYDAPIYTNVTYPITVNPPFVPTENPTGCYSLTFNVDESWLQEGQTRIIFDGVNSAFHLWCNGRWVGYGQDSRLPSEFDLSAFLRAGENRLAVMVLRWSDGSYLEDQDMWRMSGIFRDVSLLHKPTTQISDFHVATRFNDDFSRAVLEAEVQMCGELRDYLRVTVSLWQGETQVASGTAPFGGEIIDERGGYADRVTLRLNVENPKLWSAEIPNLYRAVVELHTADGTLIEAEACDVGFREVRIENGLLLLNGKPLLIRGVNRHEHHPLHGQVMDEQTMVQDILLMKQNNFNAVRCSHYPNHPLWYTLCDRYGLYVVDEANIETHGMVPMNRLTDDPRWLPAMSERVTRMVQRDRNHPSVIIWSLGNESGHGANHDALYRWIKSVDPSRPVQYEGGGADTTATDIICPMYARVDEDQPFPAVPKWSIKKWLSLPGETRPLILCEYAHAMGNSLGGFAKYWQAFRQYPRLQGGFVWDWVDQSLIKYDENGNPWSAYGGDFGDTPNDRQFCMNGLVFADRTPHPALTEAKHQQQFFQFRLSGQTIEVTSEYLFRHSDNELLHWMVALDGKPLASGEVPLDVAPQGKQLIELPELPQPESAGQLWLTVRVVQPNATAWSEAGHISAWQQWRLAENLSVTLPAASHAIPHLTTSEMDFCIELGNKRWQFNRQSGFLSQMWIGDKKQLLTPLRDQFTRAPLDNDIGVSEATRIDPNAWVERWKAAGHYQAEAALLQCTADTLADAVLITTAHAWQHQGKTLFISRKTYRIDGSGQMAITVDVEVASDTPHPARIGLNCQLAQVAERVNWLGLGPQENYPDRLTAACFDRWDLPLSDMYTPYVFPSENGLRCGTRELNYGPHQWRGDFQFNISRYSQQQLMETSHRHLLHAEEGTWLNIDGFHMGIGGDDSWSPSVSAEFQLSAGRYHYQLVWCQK
T2 sequence (Q9HC16 whole entry): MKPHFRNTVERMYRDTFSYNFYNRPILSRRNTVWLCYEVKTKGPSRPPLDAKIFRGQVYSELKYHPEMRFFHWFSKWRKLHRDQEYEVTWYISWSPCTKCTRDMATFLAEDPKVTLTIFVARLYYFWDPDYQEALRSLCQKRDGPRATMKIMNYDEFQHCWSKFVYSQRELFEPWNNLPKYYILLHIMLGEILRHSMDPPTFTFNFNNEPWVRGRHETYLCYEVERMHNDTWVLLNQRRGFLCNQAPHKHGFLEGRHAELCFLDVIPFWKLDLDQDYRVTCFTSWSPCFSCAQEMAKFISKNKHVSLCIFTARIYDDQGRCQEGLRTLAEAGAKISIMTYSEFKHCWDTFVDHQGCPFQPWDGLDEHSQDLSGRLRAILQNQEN
Nonstructural protein 1, sequence (Q194T2 whole entry): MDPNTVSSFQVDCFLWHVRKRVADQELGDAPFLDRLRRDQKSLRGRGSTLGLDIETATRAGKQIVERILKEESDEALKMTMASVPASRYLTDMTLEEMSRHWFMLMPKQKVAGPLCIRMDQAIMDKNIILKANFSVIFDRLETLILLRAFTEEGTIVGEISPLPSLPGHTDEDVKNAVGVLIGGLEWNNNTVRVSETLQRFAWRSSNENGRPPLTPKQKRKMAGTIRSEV
DNA dC->dU-editing enzyme APOBEC-3A, sequence (P31941 whole entry): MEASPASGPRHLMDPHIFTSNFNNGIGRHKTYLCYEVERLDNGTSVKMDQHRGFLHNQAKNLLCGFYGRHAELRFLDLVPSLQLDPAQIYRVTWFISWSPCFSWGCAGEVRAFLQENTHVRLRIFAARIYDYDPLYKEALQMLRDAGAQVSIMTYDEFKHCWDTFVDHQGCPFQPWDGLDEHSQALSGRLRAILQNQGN
Polyadenylate-binding protein 1, sequence (P11940 whole entry): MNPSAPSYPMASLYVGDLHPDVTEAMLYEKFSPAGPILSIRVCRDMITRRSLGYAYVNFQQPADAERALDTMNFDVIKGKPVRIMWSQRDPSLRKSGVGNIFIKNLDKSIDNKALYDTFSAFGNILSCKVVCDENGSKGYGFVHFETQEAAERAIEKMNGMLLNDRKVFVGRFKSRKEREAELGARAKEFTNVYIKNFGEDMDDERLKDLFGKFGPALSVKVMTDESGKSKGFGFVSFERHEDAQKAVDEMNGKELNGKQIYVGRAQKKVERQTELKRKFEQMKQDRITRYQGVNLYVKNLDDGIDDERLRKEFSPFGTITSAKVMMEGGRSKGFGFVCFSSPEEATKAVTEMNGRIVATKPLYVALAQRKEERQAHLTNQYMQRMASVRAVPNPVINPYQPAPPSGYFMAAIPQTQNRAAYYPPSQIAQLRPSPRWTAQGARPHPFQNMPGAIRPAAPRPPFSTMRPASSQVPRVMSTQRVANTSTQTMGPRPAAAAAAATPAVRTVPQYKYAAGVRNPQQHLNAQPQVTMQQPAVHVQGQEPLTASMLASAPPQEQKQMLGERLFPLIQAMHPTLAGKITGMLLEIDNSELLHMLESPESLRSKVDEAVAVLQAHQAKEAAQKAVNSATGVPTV
Cytochrome P450 2C9, sequence (P11712 whole entry): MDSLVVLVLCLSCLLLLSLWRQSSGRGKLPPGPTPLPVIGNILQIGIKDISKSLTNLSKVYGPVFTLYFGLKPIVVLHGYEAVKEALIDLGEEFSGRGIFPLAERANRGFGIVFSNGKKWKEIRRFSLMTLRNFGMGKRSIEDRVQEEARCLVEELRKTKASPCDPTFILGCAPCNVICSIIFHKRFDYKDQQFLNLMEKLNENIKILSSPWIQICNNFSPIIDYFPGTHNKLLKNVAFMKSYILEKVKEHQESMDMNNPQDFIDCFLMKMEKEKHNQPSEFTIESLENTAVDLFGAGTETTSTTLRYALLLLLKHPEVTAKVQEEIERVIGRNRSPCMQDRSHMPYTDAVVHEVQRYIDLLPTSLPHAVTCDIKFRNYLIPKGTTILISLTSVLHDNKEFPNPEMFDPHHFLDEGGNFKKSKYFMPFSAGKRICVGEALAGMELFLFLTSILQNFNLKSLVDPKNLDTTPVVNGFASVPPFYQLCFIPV
Large T antigen, sequence (P03070 whole entry): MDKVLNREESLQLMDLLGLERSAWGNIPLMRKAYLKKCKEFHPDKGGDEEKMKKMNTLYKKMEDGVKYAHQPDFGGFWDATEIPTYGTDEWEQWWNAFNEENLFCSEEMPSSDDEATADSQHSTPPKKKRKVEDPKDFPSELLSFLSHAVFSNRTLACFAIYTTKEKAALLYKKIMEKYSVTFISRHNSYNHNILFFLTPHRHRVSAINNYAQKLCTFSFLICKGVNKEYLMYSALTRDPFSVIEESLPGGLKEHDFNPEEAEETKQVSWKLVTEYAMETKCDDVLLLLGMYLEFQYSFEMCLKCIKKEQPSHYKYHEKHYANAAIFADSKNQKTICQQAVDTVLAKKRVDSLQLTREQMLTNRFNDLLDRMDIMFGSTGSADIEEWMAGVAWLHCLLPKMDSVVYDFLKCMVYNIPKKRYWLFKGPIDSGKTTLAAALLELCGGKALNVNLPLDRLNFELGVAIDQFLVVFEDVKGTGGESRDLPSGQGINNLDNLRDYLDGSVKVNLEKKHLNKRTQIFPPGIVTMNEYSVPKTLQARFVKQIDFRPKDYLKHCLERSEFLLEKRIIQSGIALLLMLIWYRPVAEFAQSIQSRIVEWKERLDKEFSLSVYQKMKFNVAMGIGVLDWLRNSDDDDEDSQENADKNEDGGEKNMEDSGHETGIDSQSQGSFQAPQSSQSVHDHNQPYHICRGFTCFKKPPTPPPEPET

Cc1ccc(S(=O)(=O)Nc2ccc(NC(=O)Nc3cccc(C(F)(F)F)c3)cc2)cc1
EC50 [1]: 9.49 µM (active)
EC50 [2]: 12.9 µM (active)
AC50 [3]: 1.36 µM (active)
Absolute IC50 (XBP1) (X-box-binding protein 1): 10 µM
AC50 (INS1): 8.16 µM (active)

CCOC(=O)c1sc(NC(=O)C(C)C)c(C#N)c1C
IC50 [4]: 39.3 µM (active)

COCCCN1C(=O)/C(=C\c2nc(C#N)c(Nc3ccc(C)cc3)o2)SC1=S
EC50 (HEK293): > 35.4 µM (not active)
EC50 [5]: 108 µM (active)
EC50 [6]: > 35.4 µM (not active)
EC50 (Streptokinase A): > 150 µM (not active)
EC50 [7]: > 35.4 µM (not active)
EC50 (Streptococcus): > 150 µM (not active)

CCn1c(=O)c2cc(C(=O)NCc3cccs3)sc2c2ccccc21
IC50 [8]: > 80 µM (inactive)

COC(=O)/C(=C(/F)Sc1cc(C)c(O)c(C)c1)C(F)(F)F
Absolute IC50 (XBP1) (X-box-binding protein 1): 10 µM

Nc1c(N(C(=O)Nc2ccc(Cl)c(Cl)c2)C2CCCC2)c(=O)[nH]c(=O)n1Cc1ccccc1
EC50 [1]: 15.5 µM (active)
EC50 [2]: 15.3 µM (active)
Absolute IC50 (XBP1) (X-box-binding protein 1): 10 µM

C[n+]1ccc(-c2ccncc2)cc1
IC50 [9]: 82.2 µM (active)
IC50 [10]: 7.33 µM (active)
IC50 [11]: 2.02 µM (active)
IC50 [12]: 2.53 µM (active)

CN(CC(=O)Nc1ccc(OC(F)F)cc1)S(=O)(=O)/C=C/c1ccccc1
IC50 [13]: > 66.6 µM (inactive)
IC50 (Beta-galactosidase): > 66.6 µM (inactive)

COc1ccc(C(=O)Nc2ccc(OC)c([N+](=O)[O-])c2)cc1Br
IC50 [8]: > 80 µM (inactive)

Cc1ccc(-c2nn3c(C)nnc3c3ccccc23)cc1S(=O)(=O)NCCN1CCOCC1
IC50 [8]: > 80 µM (inactive)
AC50 (Cytochrome P450 2C19): inconclusive
AC50 (Cytochrome P450 2C9): 20 µM (inconclusive)

CC[C@H](C)/C=C(C)/C=C/C1=CC2=C(Cl)C(=O)[C@@](C)(OC(C)=O)C(=O)C2=CO1
IC50 (Large T antigen): 30.4 µM (active)
IC50 (Hexokinase HKDC1): 16.8 µM (active)

CCOC(=O)c1ccc(-n2c(=S)sc3c(O)nc(C)nc32)cc1
EC50 (HEK293): > 35.4 µM (not active)
EC50 [6]: > 35.4 µM (not active)
EC50 [7]: > 35.4 µM (not active)

O=[N+]([O-])c1ccc(O)c(/C=N/Nc2ccccn2)c1
EC50 (cells [14]): > 350 µM (not active)
EC50 (cells [15]): > 350 µM (not active)
IC50 [13]: > 66.6 µM (inactive)
IC50 (Beta-galactosidase): > 66.6 µM (inactive)
IC50 (Nonstructural protein 1): 7.05 µM (active)
AC50 [16]: 3.97 µM (active)
AC50 (INS1): 0.342 µM (active)
IC50 [17]: 9.75 µM (active)
